Like-named read-outs stand apart in the source and are kept apart here.
What was measured:
[1] = test system: sulfotransferases (SULTs) in human liver S9; assay: Inhibition of hydroxycinnamic acid sulfation by flavonoids and quercetin conjugates in human liver S9; type: biochemical
Description: (§1) The incubation mixture, in a final volume of 50 μL, consisted of 100 mM potassium phosphate buffer (pH 7.4), with 100 μM vitamin C, 100 μM PAPS and 1 mM DTT. Human liver S9 and intestinal S9 homogenates were used at 1 mg/mL and 0.4 mg/mL, respectively. The flavonoids were added from a 5 mM stock solution dissolved in DMSO, with final DMSO concentration equalized to 0.2%. Quercetin-3-glucuronide, quercetin-7-glucuronide and quercetin-3′-sulfate were dissolved in water. After a 15 min pre-incubation period, the reaction was initiated by adding 10 μM cinnamic acids and 25 μM dihydrocinnamic acids from a 50 mM stock solution in DMSO. To inhibit hydrolysis of quercetin glucuronides, in some analyses, 5 mM saccharolactone was added. After 30 min incubation in a 37° C. water bath, the reaction was stopped by addition of 10 μL ice-cold acetonitrile containing 500 mM HCl. Controls were treated under identical condition and consisted of samples with 0.2% DMSO (final concentration) added to the buffer. Samples were stored at −70° C. until analysis.
(§2) HPLC analyses were carried out using the Agilent 1200 series liquid chromatography system. For the analysis of caffeic acid, ferulic acid, isoferulic acid, dihydroferulic acid and their conjugates, chromatography was performed with a Zorbax XDB-C18 column (4.6×150 mm, 5 μm). The mobile phase consisted of 20 mM ammonium formate, pH 2.8 (A) and methanol (B). For the analysis of caffeic acid and conjugates, samples were eluted at 1 mL/min with 5% to 25% B in 20 min, followed by 80% B in 2 min and back to 5% B for 3 min. For the analysis of ferulic and isoferulic acid and their conjugates, the gradient was from 10% to 20% B in 10 min, to 60% B in 15 min, then set at 80% B for 2 min and back to 10% B for 3 min, at 1 mL/min. Dihydroferulic acid and conjugates analysis was carried out at 1 mL/min, from 10% to 20% B in 15 min, to 60% B in 10 min, up to 80% B for 2 min and finally to 10% B for 3 min. For dihydrocaffeic acid and conjugates, the analyses were performed with a Zorbax XDB-C18 column (4.6×50 mm, 1.8 μm) with 20 mM ammonium formate, pH 4.5 (A) and methanol (B) as the mobile phase. The gradient started at 3% (B) kept for 15 min, followed by an increase to 40% B in 5 min, and then returned to 3% B for 5 min. Samples were centrifuged and 25 μL of the supernatant were injected into the column. UV-detection carried out at 280 nm and 310 nm using photodiode array detector. Caffeic, ferulic and isoferulic acid were quantified at 310 nm, dihydroferulic acid and dihydrocaffeic acid at 280 nm.

[2] = test system: sulfotransferases (SULTs) in human intestinal S9; assay: Inhibition of hydroxycinnamic acid sulfation by flavonoids in human intestinal S9; type: biochemical; settings: human intestinal S9 0.4 mg/mL, 30 min, 37° C.
Description: as §1, §2

[3] = test system: HepG2 cells; assay: Inhibition of caffeic acid and ferulic acid sulfation in HepG2 cells; type: cell-based, human; settings: caffeic and ferulic acids 10 μM, 4 h
Description: HepG2 cells (ATCC) were routinely cultured in 75 cm^2 cell culture flasks at 37° C. under a humidified 5% CO2/O2 atmosphere. The culture media consisted of Eagle's Minimum Essential Medium (EMEM) media supplemented with 10% fetal bovine serum (Sigma-Aldrich) and 100 U/ml penicillin-streptomycin. All experiments were performed with HepG2 cells between passages 80 to 95. For metabolic studies, HepG2 cells were seeded into 12-well plates at a cell density of 2×10^5 per well. The cell monolayers were allowed to grow over 96 h before they were used for experiments. Hydroxycinnamic acid metabolism experiments were carried out in serum-free media with 100 μM vitamin C and 1.8 mM CaCl2, adjusted to pH 6.5. Cinnamic acids (10 μM) and dihydrocinnamic acids (25 μM) were added from a 50 mM stock solution in DMSO. […] 0.4 mL of hydroxycinnamic acids, with or without the inhibitors, were added to the HepG2 cells and incubated for 4 h at 37° C. The incubation media were then collected, acidified with 1 mM vitamin C and dried under vacuum. The residue was extracted by sonication for 5 min and vortex for 1 min, first with 500 μL acetonitrile, followed by 500 μL methanol. […]
HPLC analyses were carried out using the Agilent 1200 series liquid chromatography system. […] Caffeic, ferulic and isoferulic acid were quantified at 310 nm, dihydroferulic acid and dihydrocaffeic acid at 280 nm.

[4] = liver S9, 10 μM caffeic acid, quercetin conjugates dissolved in water, read-out: IC50 for the inhibition of sulfation of Caffeic acid
[5] = liver S9, 10 μM ferulic acid, quercetin conjugates dissolved in water, read-out: IC50 for the inhibition of sulfation of Ferulic acid
[6] = human liver S9 1 mg/mL, 10 μM caffeic acid, 30 min, 37° C., flavonoids, read-out: IC50 for the inhibition of sulfation of Caffeic acid
[7] = human liver S9 1 mg/mL, 10 μM ferulic acid, 30 min, 37° C., flavonoids, read-out: IC50 for the inhibition of sulfation of Ferulic acid
[8] = 10 μM caffeic acid, read-out: IC50 for the inhibition of sulfation of Caffeic acid
[9] = 10 μM ferulic acid, read-out: IC50 for the inhibition of sulfation of Ferulic acid

O=C(O)[C@H]1O[C@@H](Oc2c(-c3ccc(O)c(O)c3)oc3cc(O)cc(O)c3c2=O)[C@H](O)[C@@H](O)[C@@H]1O [Quercetin-3-glucuronide]
IC50 [1, 4]: 11 µM | IC50 [1, 5]: 12 µM

O=C(CCc1ccc(O)cc1)c1c(O)cc(O)cc1O [Phloretin]
IC50 [1, 6]: 0.99 µM | IC50 [1, 7]: 1 µM | IC50 [2, 8]: 0.84 µM | IC50 [2, 9]: 2.3 µM

O=c1c(-c2ccc(O)cc2)coc2cc(O)cc(O)c12 [Genistein]
IC50 [1, 6]: 0.59 µM | IC50 [1, 7]: 1 µM | IC50 [2, 8]: 0.77 µM | IC50 [2, 9]: 1.5 µM

O=c1c(O)c(-c2ccc(O)cc2)oc2cc(O)cc(O)c12 [Kaempferol]
IC50 [1, 6]: 0.92 µM | IC50 [1, 7]: 3.9 µM | IC50 [2, 8]: 2.5 µM | IC50 [2, 9]: 3.8 µM

O=c1cc(-c2ccc(O)cc2)oc2cc(O)cc(O)c12 [Apigenin]
IC50 [1, 6]: 0.46 µM | IC50 [1, 7]: 0.88 µM | IC50 [2, 8]: 0.96 µM | IC50 [2, 9]: 2.3 µM

COc1cc(-c2oc3cc(O)cc(O)c3c(=O)c2O)ccc1O [Isorhamnetin]
IC50 [1, 6]: 2 µM | IC50 [1, 7]: 3.7 µM | IC50 [2, 8]: 4.4 µM | IC50 [2, 9]: 4.7 µM

COc1ccc([C@@H]2CC(=O)c3c(O)cc(O)cc3O2)cc1O [Hesperetin]
IC50 [1, 6]: 4.3 µM | IC50 [1, 7]: 5.3 µM | IC50 [2, 8]: 3.5 µM | IC50 [2, 9]: 5.1 µM

O=c1c(O)c(-c2ccc(O)c(O)c2)oc2cc(O)cc(O)c12 [Quercetin]
IC50 [1, 6]: 0.41 µM | IC50 [1, 7]: 0.64 µM | Inhibition of sulfation of hydroxycinnamic acid, ranking in words ([1]; liver S9): most effective inhibitors | IC50 [2, 8]: 4.2 µM | IC50 [2, 9]: 5.2 µM | Inhibitory effect on hydroxycinnamic acids sulfation [3]: inhibitory effect

O=C(O)[C@H]1O[C@@H](Oc2cc(O)c3c(=O)c(O)c(-c4ccc(O)c(O)c4)oc3c2)[C@H](O)[C@@H](O)[C@@H]1O [Quercetin-7-glucuronide]
IC50 [1, 4]: 9.6 µM | IC50 [1, 5]: 8 µM

O=c1c(-c2ccc(O)cc2)coc2cc(O)ccc12 [Daidzein]
IC50 [1, 6]: 0.65 µM | IC50 [1, 7]: 0.62 µM | IC50 [2, 8]: 0.72 µM | IC50 [2, 9]: 2.3 µM

O=c1c(O)c(-c2ccc(O)c(OS(=O)(=O)O)c2)oc2cc(O)cc(O)c12 [Quercetin-3′-sulfate]
IC50 [1, 4]: 6.6 µM | IC50 [1, 5]: 6.7 µM

O=c1cc(-c2ccc(O)c(O)c2)oc2cc(O)cc(O)c12 [Luteolin]
IC50 [1, 6]: 0.08 µM | IC50 [1, 7]: 0.53 µM | IC50 [2, 8]: 1.3 µM | IC50 [2, 9]: 3 µM | Inhibitory effect on hydroxycinnamic acids sulfation [3]: inhibitory effect

Oc1cc(O)c2c(c1)O[C@H](c1ccc(O)c(O)c1)[C@H](O)C2 [(−)-Epicatechin]
IC50 [1, 6]: 7.4 µM | IC50 [1, 7]: 7.3 µM | IC50 [2, 8]: 7.6 µM | IC50 [2, 9]: 11 µM

Oc1cc(O)c2c(c1)O[C@H](c1ccc(O)c(O)c1)[C@@H](O)C2 [(+)-Catechin]
IC50 [1, 6]: 4.2 µM | IC50 [1, 7]: 4.4 µM | IC50 [2, 8]: 5.8 µM | IC50 [2, 9]: 7 µM
